Test results taken from US8815947B2, “Methods of treating metabolic disorders” (Case Western Reserve University, priority 2007, dated 2014).
Where two headings read alike, the source gives them in different places. Each block holds one compound with its values, some of them ahead of it.

Legend:
[1] = system: PPARβ/δ target genes FIAF, ADRP, and PDK-1; assay: Q-PCR of endogenous PPARβ/δ target genes in HaCaT cells; format: cell-based, human; conditions: for expression of mRNA of PPARβ/δ target genes FIAF, ADRP and PDK-1: normalized to 18s mRNA
Experimental: (§1) FIG. 1C illustrates graphs showing the levels of mRNA of the PPARβ/δ target genes FIAF, ADRP, and PDK-1 expressed from HaCaT cells treated with the denoted ligands (0.1 μM, 4 hr). Levels of mRNA of the PPARβ/δ target genes FIAF, ADRP, and PDK-1 were analyzed by Q-PCR and normalized to 18s mRNA. FIG. 1D illustrate a graph showing the level of ADRP mRNA in HaCaT cells that were transfected with control siRNA or PPARβ/δ siRNA (24 hr.), and then treated with the denoted ligands (0.1 μM, 4 hr). ADRP mRNA was analyzed by QPCR and normalized to 18s mRNA. […] FIG. 1F illustrates a graph of the total activation of HaCaT cells transfected with a RARE-driven luciferase reporter. Cells were treated with RA at the denoted concentrations (15 hr), lysed, and luciferase activity measured and corrected for β-galactosidase activity. Data were normalized to the basal activity. […] FIG. 1G illustrates a graph of the level of expression of mRNA of the RAR target gene Cyp26α in cells that were treated with the denoted ligands. Expression of mRNA of the RAR target gene Cyp26α was analyzed by Q-PCR and normalized to 18s mRNA.
Quantitative real-time PCR (Q-PCR). RNA was extracted and cDNA generated using Gene Amp RNA PCR (Applied Biosystems, Foster City, Calif.). Q-PCR analyses for PDK-1 were conducted using TaqMan chemistry and Assays on Demand probes (Applied Biosystems, PDK1-Hs00176884_ml, ADRP-Hs00765634_ml, FIAF-Hs00211522_ml), Cyp26a-Hs01075671_gl, BTG2-Hs00198887_ml, cyclin D1 0 Hs00277039-ml. […] Analyses were carried out using the relative standard curve method (Applied Biosystems Technical Bulletin no. 2).

FABP5 [2] = molecular target: T1, FABP5 (Homo sapiens, UniProt Q01469); assay: Fluorescence-based binding assay (ANS titration and competition); parameters: GST; made in house; host or cells: E. coli BL21
Target sequence in this assay (Q01469 whole entry, species assumed): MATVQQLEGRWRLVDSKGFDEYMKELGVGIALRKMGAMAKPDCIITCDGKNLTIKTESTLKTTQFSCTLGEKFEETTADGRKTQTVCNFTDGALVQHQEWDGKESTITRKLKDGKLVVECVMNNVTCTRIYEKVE
Experimental: Binding assays were carried out by fluorescence titrations using a Fluorolog 2 DMIB spectrofluorometer (SPEX Instruments, Edison, N.J.). […] In the first step, Kd for the association of the protein with the fluorescent fatty acid probe ANS was measured. Protein (1 μM) was titrated with ANS from a concentrated solution in ethanol. Ligand binding was monitored by following the increase in the fluorescence of the ligand upon binding to the protein (λex-370 nm; λem-475 nm). Titration curves were analyzed (Norris and Li, 1998) to yield the number of binding sites and Kd. Kds for binding of non-fluorescent ligands were then measured by monitoring their ability to compete with fluorescent probes for binding. […] Kds were extracted from the EC50 of the competition curve and the measured Kd for the probe. Analyses were carried out using Origin 7.5 software (MicroCal Software Inc., Northampton, Mass.).

GFP-FABP5 = molecular target: T2, GFP-FABP5 (Homo sapiens, UniProt Q01469); assay: Confocal fluorescence microscopy of GFP-FABP5 in live COS-7 cells; format: cell-based; conditions: ligand 1 μM, 30 min
T2 construct: expressed in transfected cells; host or cells: COS-7
Experimental: Images were acquired from live cells before and after a 30 min. treatment with RA (1 μM). […] Forty cells of each treatment group were analyzed (mean±SEM).
Confocal fluorescence microscopy. COS-7 cells were plated in 35 mm glass bottom microwell dishes (Mattek) in DMEM containing 5% charcoal-treated FBS (75,000 cells per plate), grown for 12 hr. and transfected using Fugene (Roche) with an expression vector harboring GFP-tagged FABP5 (EGFP, 250 ng DNA per plate). Following a 48 hr incubation, medium was replaced with serum-free DMEM, and live cells were imaged using a Leica TCS SP2 confocal microscope equipped with a 40× oil immersion lens. After imaging, cells were treated with ligands (1 μM), incubated at 37° C. for 30 min and imaged again. An average of 40 cells were analyzed using ImageJ (National Institute of Health).

Akt = assay: Immunoblots of phospho-Akt in HaCaT cells; format: cell-based, human; conditions: ligand 0.1 μM, 12 hr, immunoblot
Experimental: (§2) FIG. 1B illustrates a graph showing the results of the total activation of cells cotransfected with either control siRNA or siRNA for PPARβ/δ, and then treated with RA at the denoted concentrations. FIG. 1C illustrates graphs showing the levels of mRNA of the PPARβ/δ target genes FIAF, ADRP, and PDK-1 expressed from HaCaT cells treated with the denoted ligands (0.1 μM, 4 hr). Levels of mRNA of the PPARβ/δ target genes FIAF, ADRP, and PDK-1 were analyzed by Q-PCR and normalized to 18s mRNA. FIG. 1D illustrate a graph showing the level of ADRP mRNA in HaCaT cells that were transfected with control siRNA or PPARβ/δ siRNA (24 hr.), and then treated with the denoted ligands (0.1 μM, 4 hr). ADRP mRNA was analyzed by QPCR and normalized to 18s mRNA. Data are mean±SEM, n=3. FIG. 1E illustrates immunoblots of […], total Akt, and β-tubulin in cells treated with denoted ligands (0.1 μM, 12 hr). Data from a representative experiment, which was repeated 4 times with similar results are shown. FIG. 1F illustrates a graph of the total activation of HaCaT cells transfected with a RARE-driven luciferase reporter. Cells were treated with RA at the denoted concentrations (15 hr), lysed, and luciferase activity measured and corrected for β-galactosidase activity. […] Expression of mRNA of the RAR target gene Cyp26α was analyzed by Q-PCR and normalized to 18s mRNA. […]

PPARβ/δ [3] = molecular target: T3, PPARβ/δ (Homo sapiens, UniProt Q03181); assay: Transactivation assay in COS-7 cells, PPRE reporter with PPARβ/δ expression vector; format: cell-based; parameters: expressed in transfected cells; host or cells: COS-7; conditions: COS-7 cells cotransfected with PPARβ/δ expression vector
T3 sequence (Q03181 1-441): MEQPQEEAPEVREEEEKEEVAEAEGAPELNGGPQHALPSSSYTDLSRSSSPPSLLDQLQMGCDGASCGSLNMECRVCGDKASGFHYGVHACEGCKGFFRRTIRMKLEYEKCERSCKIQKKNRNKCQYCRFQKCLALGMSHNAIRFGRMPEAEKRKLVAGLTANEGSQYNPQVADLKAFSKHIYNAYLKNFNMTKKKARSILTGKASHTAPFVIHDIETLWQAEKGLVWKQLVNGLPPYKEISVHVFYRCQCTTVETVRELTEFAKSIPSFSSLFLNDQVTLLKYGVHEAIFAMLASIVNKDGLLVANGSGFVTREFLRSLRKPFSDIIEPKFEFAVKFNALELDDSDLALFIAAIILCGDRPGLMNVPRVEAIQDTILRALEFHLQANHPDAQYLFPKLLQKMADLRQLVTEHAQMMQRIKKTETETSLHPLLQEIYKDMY
Experimental: (§3) Transactivation assays. Cells were cultured in 24-well plates and co-transfected with (PPRE)3-luciferase reporter vector (100 ng), a vector harboring the appropriate iLBP (in pCDNA 3.1, 200 ng), and pCH110, a β-galactosidase expression plasmid (50 ng). In some experiments, an expression vector encoding RAR or PPARβ/δ (in pSG5, 50 ng) was cotransfected. Transfections were carried out using Fugene (Roche Diagnostics Corporation) according to the protocol of the manufacturer. Twenty-four hours following transfection, medium was replaced by DMEM, and ligands were added (RA—in ethanol, other ligands—in dimethylsulfoxide). Following 24 hr of treatment, cells were lysed and lysates assayed for luciferase activity (Luciferase assay system, Promega) which was corrected for β-galactosidase activity. Experiments were carried out in triplicates.

RAR = assay: Transactivation assay, RARE-driven luciferase reporter in HaCaT cells; format: cell-based, human; conditions: RA 15 hr
Experimental: as §1
Transactivation assays. Cells were cultured in 24-well plates and co-transfected with (PPRE)3-luciferase reporter vector (100 ng), a vector harboring the appropriate iLBP (in pCDNA 3.1, 200 ng), and pCH110, a β-galactosidase expression plasmid (50 ng). […]

[4] = system: obese mice fed a high fat/high sucrose diet; assay: Diet-induced mouse model of obesity, systemic RA treatment; format: in vivo
Experimental: We have now completed a pilot experiment to examine the notion that all-trans-retinoic acid (RA) suppresses obesity and insulin resistance. Experiments were carried out using both cultured adipocytes and a diet-induced mouse model of obesity.
For the in vivo experiments, C57BU6J mice were fed a high fat/high sucrose diet for 16 weeks, when they weighed 1.5 fold more than a cohort fed a standard diet. […] Obese mice were separated into two groups. Both groups were continually maintained on the high fat/high sucrose diet, and one of them was systemically treated with RA.
An important measure of insulin sensitivity is the ability of an animal to clear glucose from plasma. This parameter is assessed by glucose tolerance tests (GTT) in which glucose is administered to the mice and the kinetics of its clearance from blood measured.

[5] = system: PPAR β/δ target genes PDK1 and FIAF; assay: Real-time PCR of PDK1 and FIAF in cultured adipocytes; format: cell-based
From the text: We then used real-time PCR to examine the effects of these ligands on the expression of PDK1 and another known PPAR β/δ target gene, FIAF.

FABP5 [6] = molecular target: T1, FABP5; assay: Subcellular fractionation and immunoblot of endogenous FABP5 in HaCaT cells; format: cell-based; parameters: To monitor the effects of ligands on the localization of endogenous FABP5 in HaCaT cells; endogenous in cells; host or cells: HaCaT; conditions: ligand 1 μM, 30 min, subcellular fractionation
Target sequence in this assay (Q01469 whole entry): as the sequence (Q01469 whole entry, species assumed) above
Experimental: FIG. 2C illustrates an immunoblot of HaCaT cells treated with denoted RA or with stearic acid (1 μM, 30 min.). Nuclei were separated from cytosol by subcellular fractionation (Calbiochem ProtoExtract Subcellular Proteome Extraction kit) and analyzed for the presence of FABP5 by immunoblots.
The subcellular localization of FABP5 was then examined. […] To monitor the effects of ligands on the localization of endogenous FABP5 in HaCaT cells, cells were treated with vehicle, RA, or stearate, subjected to subcellular fractionation, and the presence of FABP5 in cytosol and in nuclei examined by immunoblots (FIG. 2C).

RAR target gene Cyp26α = assay: Q-PCR of RAR target gene Cyp26α in HaCaT cells; format: cell-based, human; conditions: normalized to 18s mRNA
Experimental: as §2, with “FIG. 1F illustrates a graph of the total activation of HaCaT cells transfected with a RARE-driven luciferase reporter.” left out
Quantitative real-time PCR (Q-PCR). […]

PPARβ/δ [7] = molecular target: T3, PPARβ/δ; assay: Transactivation assay, PPRE-driven luciferase reporter in HaCaT cells; format: cell-based; parameters: endogenous in cells; host or cells: HaCaT
Experimental: The ability of RA to activate PPARβ/δ in the human keratinocyte cell line HaCaT was examined. Transactivation assays were conducted in HaCaT cells transfected with a PPRE-driven luciferase reporter. Cells were treated with the ligands denoted in FIG. 1 for 15 hours, lysed and luciferase activity was measured and corrected for β-galactosidase activity. Data was normalized to the basal activity. Data are mean±SEM, n=3
as §3

[8] = obese mice on high fat diet, RA treated

T2 sequence (Q01469 whole entry): as the sequence (Q01469 whole entry, species assumed) above

Structure (SMILES): CC1=C(/C=C/C(C)=C\C=C\C(C)=C\C(=O)O)C(C)(C)CCC1 [9-cis-RA]
expression of mRNA of PPARβ/δ target genes FIAF, ADRP and PDK-1 ([1]; ligand 0.1 μM, 4 hr): modest response

Kd (FABP5 [2]; mean±SD, n=3, protein 1 μM titrated with probe, read-out: Kd for FABP5, direct fluorescence titration): 57 ± 7.3 nM
Structure (SMILES): O=S(=O)(O)c1cccc2cccc(Nc3ccccc3)c12 [ANS, Anilinonaphtalene-8-sulphonic acid]

Structure (SMILES): Cc1cc(SCc2sc(-c3ccc(C(F)(F)F)c(F)c3)nc2C)ccc1OCC(=O)O [GW0742]
subcellular distribution of GFP-FABP5 (nuclear/cytoplasmic) (GFP-FABP5): distinct shift of the protein into the nucleus | Kd (FABP5 [2]): 42.3 ± 4.5 nM | phosphorylation level of Akt (Akt): significantly increased

Kd (FABP5 [2]; mean±SD, n=3, extracted from EC50 of competition curve and Kd of probe, read-out: Kd for FABP5, fluorescence competition titration against ANS): 34.8 ± 6.6 nM | nuclear localization of endogenous FABP5 (FABP5 [6]): accumulates in the nucleus | RA-induced PPRE reporter response after PPARβ/δ siRNA (PPARβ/δ [7]; PPARβ/δ expression decreased by about 80% by siRNA): markedly suppressed
Structure (SMILES): CC1=C(/C=C/C(C)=C/C=C/C(C)=C/C(=O)O)C(C)(C)CCC1 [RA, all-trans-retinoic acid]
expression of PPRE-driven reporter (PPARβ/δ [3]): enhanced the expression of the PPRE-driven reporter in a dose-responsive manner | expression of RARE-driven luciferase reporter (RAR): upregulated the expression of a reporter gene construct | subcellular distribution of GFP-FABP5 (nuclear/cytoplasmic) (GFP-FABP5): distinct shift of the protein into the nucleus | hepatic lipid accumulation (steatosis) ([4]; livers of mice fed a high fat diet and treated with RA): all but devoid of lipid stores | weight of fat tissue (white adipose tissue) [4, 8]: decreased by over two fold | weights of liver, skeletal muscle or brown adipose tissue (BAT) [4, 8]: without affecting | food consumption ([4]; obese mice on high fat diet, RA treated vs non-treated cohort): higher than that of the non-treated cohort | loss of body weight ([4]; obese mice on high fat/high sucrose diet, five week RA treatment, 0.16 mg/day systemic): ~15% | expression of FIAF and PDK1 mRNA [5]: enhanced the expression of these genes | induction of ADRP mRNA after PPARβ/δ siRNA ([1]; 80% decrease in PPARβ/δ expression, ligand 0.1 μM, 4 hr): significantly hampered | induction of ADRP mRNA after FABP5 siRNA ([1]; about 80% decrease in FABP5 protein): markedly attenuated | expression of mRNA of PPARβ/δ target genes FIAF, ADRP and PDK-1 ([1]; ligand 0.1 μM, 4 hr): upregulated the expression of mRNA for all three | phosphorylation level of Akt (Akt): significantly increased | expression of mRNA for CYP26α (RAR target gene Cyp26α): efficiently upregulated | transcription of the PPRE-driven luciferase reporter (PPARβ/δ [7]; ligand 15 hours, GW0742/TTNPB 1 μM, RA at several concentrations): enhanced the expression of the PPRE-driven reporter and did so in a dose responsive manner

Structure (SMILES): C/C(=C\c1ccc(C(=O)O)cc1)c1ccc2c(c1)C(C)(C)CCC2(C)C [TTNPB, 4-[(E)-2-(5,6,7,8-Tetrahydro-5,5,8,8-tetramethyl-2-naphthalenyl)-1-propenyl]benzoic acid]
expression of FIAF and PDK1 mRNA [5]: down-regulation of the two genes | expression of mRNA of PPARβ/δ target genes FIAF, ADRP and PDK-1 ([1]; ligand 0.1 μM, 4 hr): little effect

Structure (SMILES): CCCCCCCCCCCCCCCCCC(=O)O [stearic acid]
subcellular distribution of GFP-FABP5 (nuclear/cytoplasmic) (GFP-FABP5): did not affect the subcellular distribution
